Columns and labels:
Δ80PmHS2 = Δ80PmHS2 (Pasteurella multocida, UniProt Q5SGE1); experiment: apparent kinetics; type: biochemical; details: alpha1-4-GlcNAcT activity (acceptor; donor not stated in main text)
PmHS2 = PmHS2 (Pasteurella multocida, UniProt Q5SGE1); experiment: apparent kinetics; type: biochemical; details: alpha1-4-GlcNAcT activity (acceptor; donor not stated in main text)

GlcAβ2AA
Km (Δ80PmHS2): 5.3 ± 0.7 mM | Km (PmHS2): 4 ± 0.6 mM
